Laboratory results published in patent US20250002450A1, “CATIONIC STEROID COMPOUNDS, METHOD OF OBTAINING THEREOF, FORMULATIONS COMPRISING THEREOF AND THEIR USES” (UNIVERSIDADE DO PORTO, priority 2021, published 2025).
In brackets after ≈: the same amount, converted by molar mass.

What was measured:
[1] = tested on: Escherichia coli ATCC 25922; test: Antibacterial MIC/MBC (broth microdilution); assay type: cell-based; conditions: ATCC25922, Escherichia coli ATCC 25922
Outline: (§1)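 Visible growth inhibition after 20 h at 37 degrees C defines the MIC, with compounds tested at 0.062-64 μg/mL in Mueller-Hinton broth 2 against about 5×10^5 CFU/mL. Bactericidal endpoint: 99.9% reduction of the starting inoculum on MH agar subculture.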

[2] = tested on: Acinetobacter baumannii ATCC 19606; test: Antibacterial MIC/MBC (broth microdilution); assay type: cell-based
Outline: as §1

[3] = tested on: Pseudomonas aeruginosa ATCC 27853; test: Antibacterial MIC/MBC (broth microdilution); assay type: cell-based; conditions: ATCC27853, Pseudomonas aeruginosa ATCC 27853
Outline: as §1

[4] = tested on: Gram-negative and Gram-positive bacteria; test: Antibacterial activity, whole strain panel; assay type: cell-based
Description: (§2) Twelve reference bacterial strains and nine MDR clinically relevant bacterial strains were used in this study. Gram-negative bacteria comprised reference strains E. coli ATCC 25922, K. pneumoniae ATCC 13883, Salmonella enterica serovar Typhimurium CECT 443, P. aeruginosa ATCC 27853, A. baumannii ATCC 19606, C. jejuni ATCC 33560 (ATCC—American Type Culture Collection; CECT—Colección Espanola de Cultivos Tipo); clinical isolates E. coli SA/2, an extended-spectrum β-lactamase (ESBL)-producing strain and P. aeruginosa 33b, a pan-drug-resistant isolate; and animal isolates C. jejuni P5/4, a ciprofloxacin-resistant strain, C. jejuni 4432, C. jejuni 4433, C. jejuni 4448, and E. coli 2252, a COL-resistant strain [42]. Gram-positive strains included S. aureus ATCC 29213, E. faecalis ATCC 29212, S. pyogenes ATCC 19615, and environmental isolates methicillin-resistant S. aureus (MRSA) 66/1 [43], and VAN-resistant enterococci (VRE) E. faecalis B3/101 [44]. Gram-negative fish pathogens Yersinia ruckeri ATCC 29473, Listonella anguillarum ATCC 1924, and Tenacibaculum maritimum ATCC 43397 were also included.
(§3) Strains were kept in Trypto-Casein Soy agar (TSA—Biokar Diagnostics, Allone, Beauvais, France) slants and, before each assay, were sub-cultured in Mueller-Hinton agar (MHA—Biokar Diagnostics, Allone, Beauvais, France). Y. ruckeri ATCC 29473 and L. anguillarum ATCC 1924 were kept in Nutrient Agar (Condalab, Madrid, Spain) and T. maritimum ATCC 43397 was kept in TMM agar (Condalab, Madrid, Spain), and were sub-cultured in the respective culture media before each assay. For S. pyogenes ATCC 19615, CAMHB was supplemented with 3.75% lysed horse blood (LBH—Oxoid, Basingstoke, England), whereas for C. jejuni it was supplemented with 2.5% LHB. Colony-forming unit counts of the inoculum were conducted to determine the initial inoculum size (which should be approximately 5×10^5 CFU/mL). Sterility and growth controls were included in each assay. The 96-well U-shaped untreated polystyrene microtiter plates were incubated for 20 h at 37 degrees C. (42 degrees C. for C. jejuni, in a microaerophilic atmosphere) and the minimal inhibitory concentration (MIC) was determined as the lowest concentration of compound that prevented visible growth. The minimal bactericidal concentration (MBC) was determined by spreading 100 μL of the content of the wells with no visible growth on MH plates. The MBC was determined as the lowest concentration of compound that killed 99.9% of the initial inoculum after overnight incubation at 37 degrees C. Two independent assays were performed for reference and MDR strains.
(§4) An initial screening of the antibacterial activity of the compounds was performed by the Kirby-Bauer disk diffusion method, as recommended by the Clinical and Laboratory Standards Institute (CLSI). Briefly, sterile 6 mm blank paper disks (Oxoid, Basingstoke, England) impregnated with 15 μg of each compound were placed on inoculated MH agar plates. A blank disk with dimethylsulfoxide (DMSO) was used as a negative control. MH inoculated plates were incubated for 18-20 h at 37 degrees C. At the end of incubation, the inhibition halos where measured. The MIC was used to determine the antibacterial activity of each compound, in accordance with the recommendations of the CLSI. Two-fold serial dilutions of the compounds were prepared in Mueller-Hinton Broth 2 (MHB2—Sigma-Aldrich, St. Louis, MO, USA) within the concentration range of 0.062-64 μg/mL. CTX ranging between 0.031-16 μg/mL was used as a control. Sterility and growth controls were included in each assay. Purity checks and colony counts of the inoculum suspensions were also performed in order to ensure that the final inoculum density closely approximates the intended number (5×10^5 CFU/mL). The MIC was determined as the lowest concentration of compound that inhibited growth of the bacteria. The MBC was assessed by spreading 10 μL of culture collected from wells showing no visible growth on MH agar plates. […]

[5] = tested on: Streptococcuss pyogenes ATCC 19615; test: Antibacterial MIC/MBC (broth microdilution); assay type: cell-based, Streptococcus pyogenes; conditions: Streptococcus pyogenes, ATCC19615, Streptococcuss pyogenes ATCC 19615
Description: as §2, §3, §4

[6] = tested on: P. aeruginosa 33b (PDR); test: Antibacterial MIC/MBC (broth microdilution); assay type: cell-based, Pseudomonas aeruginosa; conditions: Pseudomonas aeruginosa, P. aeruginosa 33b (PDR)
Description: as §2, §3, §4

Compound: C[C@H](CCC(=O)N1CCNCC1)[C@H]1CC[C@H]2[C@@H]3CC[C@@H]4C[C@H](O)CC[C@]4(C)[C@H]3C[C@H](O)[C@]12C [Compound 9, (R)-4-((3R,5R,8R,9S,10S,12S,13R,14S,17R)-3,12-dihydroxy-10,13-dimethylhexadecahydro-1H-cyclopenta[a]phenanthren-17-yl)-1-(piperazin-1-yl) pentan-1-one]
- MBC ([1]; read-out: MBC): > 64 µg/mL
- MIC ([1]; read-out: MIC): > 64 µg/mL
- antibacterial activity (in words) ([2]; A. baumannii ATCC 19606): displayed an inhibitory effect
- MBC ([2]; ATCC19606, Acinetobacter baumannii ATCC 19606, read-out: MBC): 64 µg/mL (≈ 139 µM)
- MIC ([2]; ATCC19606, Acinetobacter baumannii ATCC 19606, read-out: MIC): 64 µg/mL (≈ 139 µM)
- MBC ([3]; read-out: MBC): > 64 µg/mL
- MIC ([3]; read-out: MIC): > 64 µg/mL
- activity against Gram-negative bacteria (in words) ([4]; Gram-negative bacteria): exhibited activities
- spectrum of antibacterial activity (in words) ([4]; all bacterial strains tested): broad spectrum of activity
- MBC ([5]; read-out: MBC): > 64 µg/mL
- MIC ([5]; read-out: MIC): > 64 µg/mL
- MBC ([6]; read-out: MBC): > 64 µg/mL
- MIC ([6]; read-out: MIC): > 64 µg/mL
